Assay results reported in ChEMBL document CHEMBL3045541, “Synthesis and systemic fungicidal activity of silicon-containing azole derivatives” (2000).

System: Rhizoctonia solani
Test: Fungicidal activity against Rhizoctonia solani infected Oryza sativa var. Nipponbare assessed per 10 […] applied by submerged-treatment 7 days prior to infection measured after 5 days
Assay type: functional

**Q.** `C[Si](C)(C)CCC(O)(Cn1cncn1)c1ccc(F)cc1` (stereo unspecified) was tested. Which MED did it give?
**A.** Its MED is greater than 100 g.

**Q.** With `CCC(C(O)(Cn1cncn1)c1ccc(F)cc1)[Si](C)(C)C` (stereo unspecified) as the molecule, how does the MED read?
**A.** The MED was 50 g.

**Q.** Which MED does the source give for `C=CC(C(O)(Cn1cncn1)c1ccc(F)cc1)[Si](C)(C)C` (stereo unspecified) here?
**A.** Its MED is 100 g.

**Q.** For `C[Si](C)(C)C#CC(O)(Cn1cncn1)c1ccc(Cl)cc1Cl` (stereo unspecified), which MED is on record?
**A.** Its MED is greater than 100 g.

**Q.** Which MED does the source give for `C=CC(C(O)(Cn1cncn1)c1ccc(Cl)cc1)[Si](C)(C)C` (stereo unspecified) here?
**A.** The MED was greater than 100 g.

**Q.** How did the MED turn out when `C[Si](C)(C)CC(O)(Cn1ccnn1)c1ccc(F)cc1` (stereo unspecified) was run?
**A.** Its MED is greater than 100 g.

**Q.** How did the MED turn out when `C[Si](C)(C)CC(O)(Cn1nccn1)c1ccc(F)cc1` (stereo unspecified) was run?
**A.** The MED was greater than 100 g.

**Q.** How did the MED turn out when `CC(C)(n1cncn1)C(O)(C[Si](C)(C)C)c1ccc(F)cc1` (stereo unspecified) was run?
**A.** Its MED is greater than 100 g.

**Q.** `C[Si](C)(C)CC(O)(Cn1ccnc1)c1ccc(F)cc1` (stereo unspecified) was tested. Which MED did it give?
**A.** Its MED is greater than 100 g.

**Q.** Which MED does the source give for `C[Si](C)(C)CC(O)(Cn1cnnc1)c1ccc(F)cc1` (stereo unspecified) here?
**A.** The MED was greater than 100 g.

**Q.** For `C[Si](C)(C)CC(O)(Cn1cncn1)c1ccccc1F` (stereo unspecified), which MED is on record?
**A.** The MED was 100 g.

**Q.** For `CC(n1cncn1)C(O)(C[Si](C)(C)C)c1ccc(F)cc1` (stereo unspecified), which MED is on record?
**A.** The MED was 50 g.

**Q.** How did the MED turn out when `CCC(n1cncn1)C(O)(C[Si](C)(C)C)c1ccc(F)cc1` (stereo unspecified) was run?
**A.** Its MED is greater than 100 g.

**Q.** For `C[Si](C)(C)CC(O)(Cn1cncn1)c1ccc(Cl)cc1F` (stereo unspecified), which MED is on record?
**A.** Its MED is 50 g.

**Q.** How did the MED turn out when `C[Si](C)(C)CC(O)(Cn1cncn1)c1cccc(F)c1` (stereo unspecified) was run?
**A.** Its MED is 50 g.

**Q.** How did the MED turn out when `C[Si](C)(C)CC(O)(Cn1cncn1)c1ccc(C(F)(F)F)cc1` (stereo unspecified) was run?
**A.** The MED was 100 g.

**Q.** Which MED does the source give for `C[Si](C)(C)CC(O)(Cn1cncn1)c1ccc(Br)cc1` (stereo unspecified) here?
**A.** Its MED is greater than 100 g.

**Q.** For `C[Si](C)(C)CC(O)(Cn1cncn1)c1ccc(F)cc1F` (stereo unspecified), which MED is on record?
**A.** Its MED is 100 g.

**Q.** Which MED does the source give for `C[Si](C)(C)CC(O)(Cn1cncn1)c1ccccc1` (stereo unspecified) here?
**A.** The MED was 50 g.

**Q.** Which MED does the source give for `Cc1ccc(C(O)(Cn2cncn2)C[Si](C)(C)C)cc1` (stereo unspecified) here?
**A.** The MED was greater than 100 g.

**Q.** Which MED does the source give for `COc1ccc(C(O)(Cn2cncn2)C[Si](C)(C)C)cc1` (stereo unspecified) here?
**A.** The MED was greater than 100 g.

**Q.** `C[Si](C)(C)CC(O)(Cn1cncn1)c1ccc(Cl)cc1Cl` (stereo unspecified) was tested. Which MED did it give?
**A.** The MED was 100 g.

**Q.** With `C[Si](C)(C)CC(O)(Cn1cncn1)c1ccc(Cl)cc1` (stereo unspecified) as the molecule, how does the MED read?
**A.** Its MED is 25 g.

**Q.** Which MED does the source give for `CC(C)Oc1cccc(NC(=O)c2ccccc2C(F)(F)F)c1` [FLUTOLANIL] here?
**A.** Its MED is greater than 100 g.

**Q.** How did the MED turn out when `CCCCC(O)(Cn1cncn1)c1ccc(Cl)cc1Cl` (stereo unspecified) [HEXACONAZOLE] was run?
**A.** Its MED is 50 g.

**Q.** Which MED does the source give for `C[Si](C)(C)CC(O)(Cn1cncn1)c1ccc(F)cc1` (stereo unspecified) [SIMECONAZOLE] here?
**A.** The MED was 12.5 g.
